According to patent US7323479B2, “Methods for treatment and management of brain cancer using 1-oxo-2-(2,6-dioxopiperidin-3-yl)-4-methylisoindoline” (Celgene Corporation, priority 2002, dated 2008):

How the values were obtained:
[1] = Phase 1 studies of Revimid in refractory or relapsed multiple myeloma: dose limiting toxicity; type: in vivo
Description: (§1) Patients were evaluated for adverse events at each visit and the severity of these events was graded according to the National Cancer Institute (NCI) Common Toxicity Criteria. Patients were discontinued if they experienced DLT (Grade 3 or greater non-hematological, or Grade 4 hematological toxicity).

[2] = test system: IL-10; assay: LPS-stimulated production of anti-inflammatory cytokine IL-10 by PBMC; type: cell-based
[3] = Phase 1 study of Revimid in patients with solid tumors: dose limiting toxicity; type: in vivo; conditions: initial group of 20 patients, 5 escalated to 50 mg/day over 4 weeks
Description: Patients who, experienced clinical benefit were permitted to continue on treatment as Named Patients.
The study design dictates that at least 3 patients must be enrolled at a dose level and have completed 28 days of treatment prior to enrollment of patients at the next higher dose level. Patients in the first cohort began dosing at 5 mg/day of 3-(4-amino-1′-oxo-1,3-dihydro-isoindol-2-yl)-piperidine-2,6-dione. […]
If, at any given dose level in either study, one out of three patients experiences toxicity, three additional patients must be treated at that particular dose. If, however, two out of six patients experience DLT, the MTD is judged to have been exceeded. No further dose escalations are to occur and additional patients are to be enrolled at the previous dose level.

[4] = test system: metastatic melanoma; assay: Treatment of patients with metastatic melanoma; type: in vivo, human
Description: The dose was then increased every seven days to 10 mg/day, 25 mg/day, and 50 mg/day, respectively, for a total of four weeks on therapy.

[5] = test system: IL-2 and IFN-γ; assay: Augmentation of IL-2 and IFN-γ production following TCR activation of PBMC (IL-2) or T-cells (IFN-γ); type: cell-based
[6] = Phase 1 studies of Revimid in refractory or relapsed multiple myeloma: pharmacokinetics; type: in vivo
Description: as §1
Blood and urine samples were collected for analysis of pharmacokinetic parameters on Days 1 and 28. Blood samples were collected according to the following sampling schedule: pre-dose, 0.25, 0.5, 0.75, 1, 1.5, 2, 2.5, 3, 4, 6, 8, 10, 12, 18, and 24 hours post-dose. In addition, a blood sample was collected at each weekly clinic visit for 3-(4-amino-1-oxo-1,3-dihydro-isoindol-2-yl)-piperidine-2,6-dione determination. Total urine was collected and pooled according to the following time intervals post-dose: 0 to 4, 4 to 8, 8 to 12, and 12 to 24 hours. […] Bone marrow aspirations and/or tissue biopsy are also performed at Months 3, 6 and 12 if a patient's paraprotein serum concentration or 24-hour urine protein excretion declined to the next lower level, based on best response criteria.

[7] = Cardiovascular and respiratory function in anesthetized dogs; type: in vivo, Beagle dogs
Excerpt: Two groups of Beagle dogs (2/sex/group) are used.

[8] = test system: TNF-α, IL-1β, and IL-6; assay: LPS-stimulated production of pro-inflammatory cytokines by PBMC; type: cell-based
[9] = Pharmacokinetics of Actimid in relapsed/refractory multiple myeloma patients; type: in vivo, human; conditions: for AUC: AUC(0-τ); for Vd/F: Vz/f; for half-life: t½
Description: 4-(Amino)-2-(2,6-dioxo(3-piperidyl))-isoindoline-1,3-dione (Actimid™) was administered to patients with relapsed/refractory multiple myeloma. The study was conducted in compliance with Good Clinical Practices. Patients were at least 18 years old, had been diagnosed with multiple myeloma (with paraprotein in serum and/or urine), and were considered refractory to treatment after at least two cycles of treatment, or have relapsed after two cycles of treatment.
4-(Amino)-2-(2,6-dioxo(3-piperidyl))-isoindoline-1,3-dione is administered to patients at doses of 1, 2, 5, or 10 mg/day for up to four weeks; at each dose level, three patients are initially enrolled. Dosing occurs at approximately the same time each morning; all doses are administered in the fasted state (no eating for at least two hours prior to dosing and two hours after dosing). 4-(Amino)-2-(2,6-dioxo(3-piperidyl))-isoindoline-1,3-dione doses are administered in an ascending fashion such that patients in the first cohort receive the lowest dose of 4-(amino)-2-(2,6-dioxo(3-piperidyl))-isoindoline-1,3-dione (1 mg/day) and escalation to the next higher dose level occurs only following the establishment of safety and tolerability at the current dose. If one out of three patients at any dose level experience dose limiting toxicity (DLT), three additional patients are enrolled at that dose. If none of the three additional patients experience DLT, escalation to the next dose level occurs; dose escalations continue in a similar fashion until the MTD is established or the maximum daily dose (10 mg/day) is attained. However, if one of the three additional patients enrolled experiences DLT, the MTD has been reached. If two or more of the three additional patients enrolled experience DLT, the MTD is judged to have been exceeded and three additional patients are enrolled at the preceding dose level to confirm the MTD. Once the MTD has been identified, four additional patients are enrolled at that dose level so that a total of 10 patients is treated at the MTD.
Blood sampling for analysis of pharmacokinetic parameters is performed on Days 1 and 28 according to the following sampling schedule: pre-dose, 0.25, 0.5, 0.75, 1, 1.5, 2, 2.5, 3, 4, 6, 8, 10, 12, 18, and 24 hours post-dose. An additional blood sample is collected at each weekly visit for the determination of 4-(amino)-2-(2,6-dioxo(3-piperidyl))-isoindoline-1,3-dione levels. Total urine collections are also made with urine pooled according to the following time intervals post-dose: 0 to 4, 4 to 8, 8 to 12, and 12 to 24 hours. Safety assessments are made by monitoring adverse events, vital signs, ECGs, clinical laboratory evaluations (blood chemistry, hematology, lymphocyte phenotyping, and urinalysis), and physical examination at specific times during the study.

[10] = multiple myeloma patients, preliminary

Question: What does the source list for Nc1cccc2c1CN(C1CCC(=O)NC1=O)C2=O (stereo not drawn) [Revimid, 3-(4-amino-1-oxo-1,3-dihydro-isoindol-2-yl)-piperidine-2,6-dione]?
Answer: dose limiting toxicity (DLT) ([1]; first cohort of 3 patients, 5 mg/day, 28 days): without any dose limiting toxicity; tolerability ([1]; second cohort of 3 patients, 10 mg/day): tolerated treatment well; effect on production of IL-10 [2]: increased production; DLTs reported [3]: No DLTs; patients showing disease stabilization or a partial response ([4]; first four weeks of treatment, 5 escalated to 50 mg/day): Five of the 13; duration of response ([4]; metastatic melanoma patients): approximately six months; tumor response seen in cutaneous and subcutaneous lesions ([4]; metastatic melanoma patients): five; tumor response seen in liver ([4]; metastatic melanoma patients): one; tumor response seen in lymph nodes ([4]; metastatic melanoma patients): two; times more potent than thalidomide in augmenting the production of IL-2 and IFN-γ [5]: 50-100 times; half-live in patients, mean ([6]; human, in vivo): 8 h; half-live in patients, ranging up to ([6]; human, in vivo): up to 17 hours; accumulation with multiple dosing ([6]; in vivo): no evidence of accumulation; shape of concentration profile ([6]; in vivo): double peaks were observed; clearance compared to healthy volunteers [6, 10]: lower; exposure (Cmax and AUC) compared to healthy male volunteers [6, 10]: slightly higher; cardiovascular and respiratory changes compared to the vehicle control group ([7]; anesthetized dogs, 2, 10, and 20 mg/kg, infusion through the jugular vein, all doses): minimal; deviations in femoral blood flow, respiratory parameters, and Qtc interval ([7]; common to both the control and treated groups): not considered treatment-related; duration of the arterial blood pressure effect ([7]; low dose): approximately 15 minutes; arterial blood pressure after small increase ([7]; low dose, increase from 94 mmHg, not seen at higher doses): 101 mmHg; effect on LPS-stimulated production of TNF-α, IL-1β, and IL-6 [8]: dose-dependent inhibition

Question: For Nc1cccc2c1C(=O)N(C1CCC(=O)NC1=O)C2=O (stereo not drawn) [Actimid, 4-(Amino)-2-(2,6-dioxo(3-piperidyl))-isoindoline-1,3-dione], which “increase in AUC(0-τ) with 5-fold increase in dose” value ([9]; Day 1) is on record?
Answer: 3.6 fold

Question: What about the “increase in Cmax with five-fold higher dose” value ([9]; Day 1) of the same molecule?
Answer: 3.2 fold

Question: What about the “increase in AUC(0-τ) with 5-fold increase in dose” value ([9]; Week 4) of the same molecule?
Answer: 2.3 fold

Question: And the “increase in Cmax with five-fold higher dose” value ([9]; Week 4)?
Answer: 2.2 fold

Question: And the “decline of plasma concentrations after reaching Cmax” value ([9]; human, in vivo)?
Answer: declined in a monophasic manner

Question: And the “increase in AUC(0-τ) and Cmax values with increasing dose” value ([9]; human, in vivo)?
Answer: almost a dose proportional increase

Question: What about the AUC(0-inf) ([9]; human, in vivo, 1 mg) of the same molecule?
Answer: 0.153 µg·h/mL

Question: And the AUC ([9]; human, in vivo, 1 mg)?
Answer: 0.134 µg·h/mL

Question: And the Cmax ([9]; human, in vivo, 1 mg)?
Answer: 0.015 µg/mL

Question: And the Vd/F ([9]; human, in vivo, 1 mg)?
Answer: 69.5 L

Question: And the Tmax ([9]; human, in vivo, 1 mg, tmax)?
Answer: 3.3 h

Question: What about the half-life ([9]; human, in vivo, 1 mg) of the same molecule?
Answer: 7.3 h

Question: And the AUC(0-inf) ([9]; human, in vivo, 2 mg)?
Answer: 0.279 µg·h/mL

Question: What about the AUC ([9]; human, in vivo, 2 mg) of the same molecule?
Answer: 0.25 µg·h/mL

Question: And the Cmax ([9]; human, in vivo, 2 mg)?
Answer: 0.0244 µg/mL

Question: What about the Vd/F ([9]; human, in vivo, 2 mg) of the same molecule?
Answer: 65.3 L

Question: And the Tmax ([9]; human, in vivo, 2 mg, tmax)?
Answer: 2.7 h

Question: And the half-life ([9]; human, in vivo, 2 mg)?
Answer: 6.3 h

Question: And the AUC(0-inf) ([9]; human, in vivo, 5 mg)?
Answer: 0.593 µg·h/mL

Question: What about the AUC ([9]; human, in vivo, 5 mg) of the same molecule?
Answer: 0.521 µg·h/mL

Question: And the Cmax ([9]; human, in vivo, 5 mg)?
Answer: 0.0486 µg/mL

Question: What about the Vd/F ([9]; human, in vivo, 5 mg) of the same molecule?
Answer: 87.2 L

Question: And the Tmax ([9]; human, in vivo, 5 mg, tmax)?
Answer: 2.3 h

Question: What about the half-life ([9]; human, in vivo, 5 mg) of the same molecule?
Answer: 6.5 h

Question: And the Tmax ([9]; human, in vivo, median Tmax)?
Answer: 2.5 to 2.8 h

Question: What about the Tmax ([9]; human, in vivo, po, tmax) of the same molecule?
Answer: 3.6 h

Question: And the half-life ([9]; human, in vivo, po)?
Answer: 6.2 h
